Where two headings read alike, the source gives them in different places.
Columns and labels:
[1] = test system: E. coli K-12 cells (strain DH5); assay: Sterilization efficacy on LB agar plates loaded with E. coli, ozone generation and degradation cycle in cell culture chamber; assay type: cell-based; details: test #2 dish; approx. 1.5×10^8 cells plated; ozone 120 minutes plus 15 minutes degradation; peak approx. 140-150 ppm ozone; plates incubated at 37° C. overnight
Description: (§1) In tests #2 and #3, represented by lines 520 and 530, respectively, both the ozone generator and an ozone degrader were present in the cell culture chamber. The ozone degrader was formed of three activated carbon filters. With the ozone degrader present, the ozone generator was unable to achieve the peak ozone concentration seen in test #1. In tests #2 and #3, the ozone generator was run for 120 minutes and the concentration of ozone noticeably plateaued. The air within the cell culture chamber reached a peak ozone concentration of approximately 140-150 ppm ozone. After the ozone generator was turned off, the ozone began to break down at an accelerated rate with the activated carbon filters present. In both tests #2 and #3, the ozone levels reached a level of 0.01 ppm ozone within 15 minutes.
While the peak ozone concentrations reached in tests #2 and #3 were noticeably lower than the peak ozone concentration of test #1, the ozone levels in tests #2 and #3 were at least sufficient to achieve sterilization. In each of tests #2 and #3, sterilization efficacy was measured with the assistance of LB agar plates loaded with E. coli bacteria. […] The quantity of E. coli present was then analyzed and a photograph of each plate was taken. […] In the test dish 550, a 100% E. coli kill rate was observed; no E. coli was detected.

bacteriophage T1 = assay: Effect of ozone on bacteriophage T1 spotted on LB agar plates; assay type: cell-based; details: spots of 10^9 to 10^6 pfu/mL; ozone 4 hours, peak less than 150 ppm; silver-coated mesh generator; DH5 E. coli overlay, 72 hours at room temperature
Description: In Experiment 2, the effect of ozone on bacteriophage T1 was studied. In the experiment, 2.5 μL of purified bacteriophage T1 was spotted in four quadrants of two LB agar plates—a test plate 610 and a control plate 620, shown in FIG. 6. The bacteriophage concentrations on each of the two plates were (clockwise from the spot in the upper right quadrant): 10^9 pfu/mL, 10^8 pfu/mL, 10^7 pfu/mL, and 10^6 pfu/mL.
The test plate 610 was placed in an incubator chamber containing both an ozone generator and an ozone degrader. The ozone generator included two ceramic plates surrounded substantially by a silver-coated metal mesh. The ozone generator was activated and the test plate 610 was treated with ozone for 4 hours. The ozone generator was then turned off, and the ozone degrader, formed of activated carbon filters, accelerated the conversion of ozone to oxygen. The peak ozone concentration level generated within the incubator chamber was less than 150 ppm ozone.
The control plate 620 was placed in a different incubator chamber and left untreated. After the ozone generation and degradation cycle completed in the incubator chamber containing the test plate 610, 1 mL of stationary DH5 E. coli bacteria and top agar were added to each plate and incubated at room temperature for 72 hours. The photograph 600 in FIG. 6 was taken immediately following this 72-hour period.

[2] = Ozone breakdown in enclosed cell culture chamber, monitored with calibrated ozone analyzer; assay type: physicochemical
Description: In Experiment 1, an 1800 mg/hour ozone generator was placed in a 5.5 cubic feet cell culture. The ozone level within the chamber was monitored using a calibrated ozone analyzer. Ozone measurements were captured every 10 seconds. The experimental results, as represented by ozone level over time, are provided in the line graph 500 of FIG. 5A. In test #1, represented by line 510, the ozone generator was run for 80 minutes and achieved a peak ozone concentration within the cell culture chamber of approximately 325 ppm. After the ozone generator was turned off, the ozone was left to break down naturally within the enclosed cell culture chamber. It took approximately 28 hours for the ozone to breakdown to 0.01 ppm ozone.
as §1, with “After the ozone generator was turned off, the ozone began to break down at an accelerated rate with the activated carbon filters present. In both tests #2 and #3, the ozone levels reached a level of 0.01 ppm ozone within 15 minutes.” left out

[3] = cited from earlier work
humans = details: OSHA limit, per workday; cited from earlier work

O=[O+][O-] [ozone]
E. coli kill rate [1]: 100%
survival of the T1-phage (bacteriophage T1): negligible survival
time for the ozone to breakdown to 0.01 ppm ozone ([2]; test #1, natural breakdown, no degrader, from peak approx. 325 ppm, 5.5 cubic feet chamber): approximately 28 hours
time for ozone levels to reach 0.01 ppm ozone ([2]; tests #2 and #3, three activated carbon filters as ozone degrader, from peak approx. 140-150 ppm): ≤ 15 min
half-life ([3]; in the air): 36 to 72 h
half-life ([3]; in water): 0.13 to 0.5 h
acceptable ozone exposure in the workplace (humans): under 0.1 ppm

Source: patent US10980910B2, “Apparatus and methods for ozone generation and degradation” (Gene Therapy Systems, Inc., priority 2013, dated 2021)
